{"source": "patent US8178136B2", "about": "“Composition based on vegetal extracts of Ajuga reptans for preventing hair loss, stimulating the growth of hair, regulating the production of sebum” (Giuliani S.p.A., priority 2005, dated 2012)", "system": "5α-reductase", "test": "in-vivo inhibitory activity of 5α-reductase: haematic levels of DHT in rats after oral administration", "parameters": "species or system rat", "settings": "for Seric concentrations of DHT: individual rat values; for Seric concentrations of DHT, average: basal average 335.7", "protocol": "A study was carried out to determine in-vivo the inhibitory activity of 5α-reductase on the part of a total extract deriving from a cellular culture of Ajuga reptans.\nThe study was effected by determining the haematic levels of DHT (5α-dihydrotestosterone) on rats after administration of the extract being studied.\nFor the in-vivo study of the inhibition of 5α-reductase, Sprague-Dawley adult male rats were used (Charles River Italia) having a body weight of 200-250 g.\nThe animals were stalled under standard conditions: at a temperature of 22/23° C., with 65% relative humidity, exposing them to illumination cycles of 12 h light/12 h darkness.\nA standard diet in the form of pellets (standard diet, Charles River) was administered to the rats, with water ad libitum\nThe experimentation was carried out according to protocols authorized by the Committee for the Care and Use of Animals of the Università degli Studi of Milan. Tests were carried out on the rats, effected from the retro-orbital plexus, immediately before the pharmalogical treatment (t0) and subsequently at a distance of 3, 6 and 8 hours after administration.\nThe administration of the substances being studied was effected orally.\nIn correspondence with each test on the animals treated, tests were also effected on non-treated animals to determine the basal analyte level. Both testosterone and DHT are in fact characterized by a significant circadian fluctuation.\nThe plasma obtained from the whole blood treated with EDTA after centrifugation was preserved at −20° C. until dosage.\nThe plasmatic concentrations of DHT (dihydrotestosterone) were determined with a commercial kit (DSL, Chematil, Angri, SA) after extraction of the samples.\nAll the samples of an experimental set were dosed together to reduce the inter-analytic variability.", "note": "Where “and” joins values, the source holds several entries; their conditions need not be identical. Equal values may be shown once.", "data": [{"smiles": "CC(C)(C)NC(=O)[C@H]1CC[C@H]2[C@@H]3CC[C@H]4NC(=O)C=C[C@]4(C)[C@H]3CC[C@]12C", "note": "[Finasteride]", "values": [{"measurement": "Seric concentrations of DHT", "setting": "Finasteride 1 mg oral, 3 hrs", "result": "569.6 pg/mL and 404.6 pg/mL and 530.0 pg/mL and 298.1 pg/mL and 505.3 pg/mL and 300.0 pg/mL"}, {"measurement": "Seric concentrations of DHT, average", "setting": "Finasteride 1 mg oral, 3 hrs, n=6", "result": 434.6, "unit": "pg/mL"}, {"measurement": "Seric concentrations of DHT", "setting": "Finasteride 1 mg oral, 6 hrs", "result": "592.1 pg/mL and 148.5 pg/mL and 420.1 pg/mL and 404.1 pg/mL and 565.0 pg/mL and 379.6 pg/mL"}, {"measurement": "Seric concentrations of DHT, average", "setting": "Finasteride 1 mg oral, 6 hrs, n=6", "result": 418.2, "unit": "pg/mL"}, {"measurement": "Seric concentrations of DHT", "setting": "Finasteride 1 mg oral, 8 hrs", "result": "530.1 pg/mL and 173.1 pg/mL and 110.0 pg/mL and 706.7 pg/mL and 140.1 pg/mL and 503.9 pg/mL"}, {"measurement": "Seric concentrations of DHT, average", "setting": "Finasteride 1 mg oral, 8 hrs, n=6", "result": 360.6, "unit": "pg/mL"}, {"measurement": "Seric concentrations of DHT", "setting": "Finasteride 5 mg oral, 3 hrs", "result": "641.0 pg/mL and 924.2 pg/mL and 569.4 pg/mL and 217.1 pg/mL and 618.6 pg/mL and 151.2 pg/mL"}, {"measurement": "Seric concentrations of DHT, average", "setting": "Finasteride 5 mg oral, 3 hrs, n=6", "result": 520.2, "unit": "pg/mL"}, {"measurement": "Seric concentrations of DHT", "setting": "Finasteride 5 mg oral, 6 hrs", "result": "49.7 pg/mL and 128.3 pg/mL and 176.9 pg/mL and 81.2 pg/mL and 205.2 pg/mL and 103.6 pg/mL and 54.4 pg/mL and 60.7 pg/mL"}, {"measurement": "Seric concentrations of DHT, average", "setting": "Finasteride 5 mg oral, 6 hrs, n=8", "result": 107.5, "unit": "pg/mL"}, {"measurement": "Seric concentrations of DHT", "setting": "Finasteride 5 mg oral, 8 hrs", "result": "576.6 pg/mL and 250.9 pg/mL and 300.1 pg/mL and 201.6 pg/mL and 108.8 pg/mL and 745.4 pg/mL"}, {"measurement": "Seric concentrations of DHT, average", "setting": "Finasteride 5 mg oral, 8 hrs, n=6", "result": 363.9, "unit": "pg/mL"}, {"measurement": "trend of the concentration of DHT after administration", "setting": "rats, oral, vs. basal levels", "result": "8 hours after treatment, the DHT rises returning to the basal levels"}]}]}
